These results are taken from PubChem BioAssay (NCI).

Among the test systems are TK-10 renal; PC-3 prostate; SK-MEL-5 melanoma; NCI-H226 lung; T-47D breast; HCT-15 colon; CAKI-1 renal; SNB-19 CNS; M14 melanoma; SR leukemia; SF-295 CNS.
What all share (assay): NCI tumour cell line growth inhibition, 48 h

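Cultured in 96-well plates, cells were exposed to test compound for 48 hours across five concentrations. GI50 = concentration required for 50% inhibition of growth. TGI: concentration producing complete growth inhibition.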

Take `CC(CNc1nc(Nc2ccc(Cl)c(Cl)c2)nc(C(Cl)(Cl)Cl)n1)N(C)C` (stereo not drawn): the GI50 with TK-10 renal was 1770 nM; with PC-3 prostate, 1760 nM; in the assay on SK-MEL-5 melanoma, 1630 nM; with NCI-H226 lung it was 1800 nM; with T-47D breast, 1910 nM; in the assay with HCT-15 colon it was 1680 nM. Moreover, the values for the GI50 in the assay with CAKI-1 renal and in the assay on SNB-19 CNS were 1700 nM and 1710 nM, respectively. Moreover, the TGI with TK-10 renal was 3.27 µM; in the assay on PC-3 prostate, 3.84 µM; with SK-MEL-5 melanoma, 2.98 µM; with NCI-H226 lung, 3.51 µM; in the assay on T-47D breast it was 4.44 µM; in the assay with HCT-15 colon, 3.15 µM. Besides, the TGI in the assay on CAKI-1 renal was 3.59 µM; in the assay on SNB-19 CNS it was 3.18 µM.

On to `CC1CC(c2ccc([N+](=O)[O-])cc2)=Nc2ccccc2S1=O` (stereo not drawn), for which the TGI in the assay on TK-10 renal was determined as 91.6 µM; in the assay on SK-MEL-5 melanoma it was 37.1 µM; in the assay with NCI-H226 lung, 80.4 µM; in the assay on M14 melanoma it was 35 µM; with HCT-15 colon it was 28.1 µM; with CAKI-1 renal it was 61.2 µM. The TGI with SR leukemia was determined as 76.6 µM; in the assay on SF-295 CNS, 55.2 µM; with SNB-19 CNS it was 38.5 µM.

Turning to `C/C=C1/C(=O)O[C@]23C=C[C@@H]4C(C(=O)OC)=CO[C@H](O[C@@H]12)[C@@H]43`, the TGI was found to be 4.2 µM with SK-MEL-5 melanoma; 5.36 µM with NCI-H226 lung; 4.66 µM with HCT-15 colon; 3.21 µM in the assay on CAKI-1 renal; 5.24 µM in the assay on SF-295 CNS; 10.3 µM in the assay on SNB-19 CNS.

Take `CCc1ncc(C(C)(O)c2ccccc2)n1Cc1ccccc1` (stereo not drawn): the TGI in the assay on TK-10 renal is greater than 100 µM; with PC-3 prostate, greater than 100 µM; in the assay with SK-MEL-5 melanoma it was 40.6 µM; with NCI-H226 lung, greater than 100 µM; in the assay with T-47D breast, greater than 100 µM; with M14 melanoma it was 13 µM. In addition, the TGI with HCT-15 colon is greater than 100 µM; with CAKI-1 renal, greater than 100 µM; in the assay with SR leukemia, 44.1 µM; with SF-295 CNS it was greater than 100 µM; in the assay with SNB-19 CNS, greater than 100 µM.

Regarding `Cc1ccc(C(=O)N/N=C(\N=Nc2ccccc2)c2ccc(N(CCC#N)CCC#N)cc2C)cc1`, the TGI with TK-10 renal, in the assay with PC-3 prostate, in the assay with SK-MEL-5 melanoma, in the assay with NCI-H226 lung, with T-47D breast and in the assay with M14 melanoma was greater than 100 µM throughout. In addition, the TGI in the assay with HCT-15 colon, in the assay with CAKI-1 renal, with SR leukemia, in the assay on SF-295 CNS and in the assay on SNB-19 CNS was greater than 100 µM each time.
